Results taken from ChEMBL document CHEMBL5030517, “6-Halopyridylmethylidene Penicillin-Based Sulfones Efficiently Inactivate the Natural Resistance of Pseudomonas aeruginosa to β-Lactam Antibiotics” (J Med Chem, 2021).
In brackets after ≈: the same amount, converted by molar mass. Blank lines part the entries; values can stand above or below the compound they belong to. Activity calls are given as the source filed them. No cut-off for these calls is given here.

Tests used:
[1] = system: Pseudomonas aeruginosa PAO1; assay: Inhibition of beta-lactamase activity in Pseudomonas aeruginosa PAO1 17/14-017 (ST-235) assessed as MIC for cefpodoxime antibacterial activity at 16 mg/L by broth microdilution method
[2] = system: Pseudomonas aeruginosa PAO1; assay: Inhibition of beta-lactamase activity in Pseudomonas aeruginosa PAO1 deltadacBdeltaampD assessed as MIC for cefpodoxime antibacterial activity at 16 mg/L by broth microdilution method
[3] = system: Pseudomonas aeruginosa PAO1; assay: Inhibition of beta-lactamase activity in Pseudomonas aeruginosa PAO1 PAHUAC-27(ST-22) assessed as MIC for cefpodoxime antibacterial activity at 16 mg/L by broth microdilution method
[4] = Inhibition beta lactamase PDC-1 in Pseudomonas aeruginosa PAO1 assessed as apparent inhibition constant using nitrocefin as substrate measured by 96 well microtitre plate; details: read-out: Ki(app)
[5] = system: Pseudomonas aeruginosa PAO1; assay: Inhibition of beta lactamase PDC-1 in Pseudomonas aeruginosa PAO1 assessed as reduction in enzyme activity using nitrocefin as chromogenic substrate preincubated for 10 min using 96 well microtiter plate
[6] = system: Pseudomonas aeruginosa PAO1; assay: Inhibition beta lactamase PDC-1 in Pseudomonas aeruginosa PAO1 assessed as maximum rate of inactivation using nitrocefin as substrate measured by 96 well microtitre plate
[7] = system: Pseudomonas aeruginosa PAO1; assay: Inhibition of beta-lactamase activity in Pseudomonas aeruginosa PAO1 6/04-224 (ST-175) assessed as MIC for cefpodoxime antibacterial activity at 4 mg/L by broth microdilution method
[8] = system: Pseudomonas aeruginosa PAO1; assay: Inhibition of beta-lactamase activity in Pseudomonas aeruginosa PAO1 deltadacB assessed as MIC for cefpodoxime antibacterial activity at 16 mg/L by broth microdilution method
[9] = system: Pseudomonas aeruginosa PAO1; assay: Inhibition of beta-lactamase activity in Pseudomonas aeruginosa PAO1 deltaampD assessed as MIC for cefpodoxime antibacterial activity at 16 mg/L by broth microdilution method
[10] = system: Pseudomonas aeruginosa PAO1; assay: Inhibition of beta-lactamase activity in Pseudomonas aeruginosa PAO1 PAHUAC-14 (ST-966) assessed as MIC for cefpodoxime antibacterial activity at 16 mg/L by broth microdilution method
[11] = system: Pseudomonas aeruginosa PAO1; assay: Inhibition of beta-lactamase activity in Pseudomonas aeruginosa PAO1 deltaC+pUCP-(PDC-5) assessed as MIC for cefpodoxime antibacterial activity at 4 mg/L by broth microdilution method
[12] = system: Pseudomonas aeruginosa PAO1; assay: Inhibition of beta-lactamase activity in Pseudomonas aeruginosa PAO1 PAHUAC-14 (ST-966) assessed as MIC for cefpodoxime antibacterial activity at 4 mg/L by broth microdilution method
Pseudomonas aeruginosa = assay: Inhibition of beta lactamase PDC-1 in Pseudomonas aeruginosa PAO1 for 30 min using MALDI TOF-MS analysis
[13] = system: Pseudomonas aeruginosa PAO1; assay: Inhibition of beta-lactamase activity in Pseudomonas aeruginosa PAO1 36/14-210 (ST-235) assessed as MIC for cefpodoxime antibacterial activity at 16 mg/L by broth microdilution method
[14] = system: Pseudomonas aeruginosa PAO1; assay: Inhibition of beta-lactamase activity in Pseudomonas aeruginosa PAO1 deltadacBdeltadacC assessed as MIC for cefpodoxime antibacterial activity at 4 mg/L by broth microdilution method
[15] = system: Pseudomonas aeruginosa PAO1; assay: Inhibition of beta-lactamase activity in Pseudomonas aeruginosa PAO1 53/22-113 (ST-244) assessed as MIC for cefpodoxime antibacterial activity at 16 mg/L by broth microdilution method
[16] = system: Pseudomonas aeruginosa PAO1; assay: Inhibition of beta-lactamase activity in Pseudomonas aeruginosa PAO1 deltaC assessed as MIC for cefpodoxime antibacterial activity at 16 mg/L by broth microdilution method
[17] = Inhibition beta lactamase PDC-1 in Pseudomonas aeruginosa PAO1 using nitrocefin as substrate measured by 96 well microtitre plate
[18] = system: Pseudomonas aeruginosa PAO1; assay: Inhibition of beta-lactamase activity in Pseudomonas aeruginosa PAO1 13/09-018 (ST-175) assessed as MIC for cefpodoxime antibacterial activity at 16 mg/L by broth microdilution method
[19] = system: Pseudomonas aeruginosa PAO1; assay: Inhibition of beta-lactamase activity in Pseudomonas aeruginosa PAO1 deltaampD assessed as MIC for cefpodoxime antibacterial activity at 4 mg/L by broth microdilution method
[20] = system: Pseudomonas aeruginosa PAO1; assay: Inhibition of beta-lactamase activity in Pseudomonas aeruginosa PAO1 deltaC+pUCP-(PDC-1) assessed as MIC for cefpodoxime antibacterial activity at 16 mg/L by broth microdilution method
[21] = system: Pseudomonas aeruginosa PAO1; assay: Inhibition of beta-lactamase activity in Pseudomonas aeruginosa PAO1 deltaDdeltsDh2deltaDh3 assessed as MIC for cefpodoxime antibacterial activity at 4 mg/L by broth microdilution method
[22] = system: Pseudomonas aeruginosa PAO1; assay: Inhibition of beta-lactamase activity in Pseudomonas aeruginosa PAO1 deltadacBdeltapbpGdeltadacC assessed as MIC for cefpodoxime antibacterial activity at 4 mg/L by broth microdilution method
[23] = system: Pseudomonas aeruginosa PAO1; assay: Inhibition of beta-lactamase activity in Pseudomonas aeruginosa PAO1 deltadacBdeltaampD assessed as MIC for cefpodoxime antibacterial activity at 4 mg/L by broth microdilution method
[24] = system: Pseudomonas aeruginosa PAO1; assay: Inhibition beta lactamase PDC-1 in Pseudomonas aeruginosa PAO1 assessed half life of nitrocefin substrate measured by 96 well microtitre plate assay
[25] = system: Pseudomonas aeruginosa PAO1; assay: Inhibition of beta-lactamase activity in Pseudomonas aeruginosa PAO1 53/22-113 (ST-244) assessed as MIC for cefpodoxime antibacterial activity at 4 mg/L by broth microdilution method
[26] = system: Pseudomonas aeruginosa PAO1; assay: Inhibition of beta-lactamase activity in Pseudomonas aeruginosa PAO1 deltaC+pUCP-(PDC-5) assessed as MIC for cefpodoxime antibacterial activity at 16 mg/L by broth microdilution method
[27] = system: Pseudomonas aeruginosa PAO1; assay: Inhibition of beta-lactamase activity in Pseudomonas aeruginosa PAO1 deltadacB assessed as MIC for cefpodoxime antibacterial activity at 4 mg/L by broth microdilution method
[28] = system: Pseudomonas aeruginosa PAO1; assay: Inhibition of beta-lactamase activity in Pseudomonas aeruginosa PAO1 deltaC+pUCP-(PDC-1) assessed as MIC for cefpodoxime antibacterial activity at 4 mg/L by broth microdilution method
[29] = system: Pseudomonas aeruginosa PAO1; assay: Inhibition of beta-lactamase activity in Pseudomonas aeruginosa PAO1 assessed as MIC for cefpodoxime antibacterial activity at 16 mg/L by broth microdilution method
[30] = system: Pseudomonas aeruginosa PAO1; assay: Inhibition of beta-lactamase activity in Pseudomonas aeruginosa PAO1 deltaC assessed as MIC for cefpodoxime antibacterial activity at 4 mg/L by broth microdilution method
[31] = system: Pseudomonas aeruginosa PAO1; assay: Inhibition of beta-lactamase activity in Pseudomonas aeruginosa PAO1 PAHUAC-27(ST-22) assessed as MIC for cefpodoxime antibacterial activity at 4 mg/L by broth microdilution method
[32] = system: Pseudomonas aeruginosa PAO1; assay: Inhibition of beta-lactamase activity in Pseudomonas aeruginosa PAO1 deltadacBdeltapbpGdeltadacC assessed as MIC for cefpodoxime antibacterial activity at 16 mg/L by broth microdilution method
[33] = system: Pseudomonas aeruginosa PAO1; assay: Inhibition of beta-lactamase activity in Pseudomonas aeruginosa PAO1 6/04-224 (ST-175) assessed as MIC for cefpodoxime antibacterial activity at 16 mg/L by broth microdilution method
[34] = system: Pseudomonas aeruginosa PAO1; assay: Inhibition of beta-lactamase activity in Pseudomonas aeruginosa PAO1 deltaDdeltsDh2deltaDh3 assessed as MIC for cefpodoxime antibacterial activity at 16 mg/L by broth microdilution method
[35] = system: Pseudomonas aeruginosa PAO1; assay: Inhibition beta lactamase PDC-1 in Pseudomonas aeruginosa PAO1 assessed as ratio of kinact/K1 using nitrocefin as substrate measured by 96 well microtitre plate
[36] = system: Pseudomonas aeruginosa PAO1; assay: Inhibition of beta-lactamase activity in Pseudomonas aeruginosa PAO1 13/09-018 (ST-175) assessed as MIC for cefpodoxime antibacterial activity at 4 mg/L by broth microdilution method
[37] = system: Pseudomonas aeruginosa PAO1; assay: Inhibition of beta-lactamase activity in Pseudomonas aeruginosa PAO1 deltadacBdeltadacC assessed as MIC for cefpodoxime antibacterial activity at 16 mg/L by broth microdilution method
[38] = system: Pseudomonas aeruginosa PAO1; assay: Inhibition of beta-lactamase activity in Pseudomonas aeruginosa PAO1 23/14-053 (ST-309) assessed as MIC for cefpodoxime antibacterial activity at 16 mg/L by broth microdilution method
[39] = system: Pseudomonas aeruginosa PAO1; assay: Inhibition of beta-lactamase activity in Pseudomonas aeruginosa PAO1 17/14-017 (ST-235) assessed as MIC for cefpodoxime antibacterial activity at 4 mg/L by broth microdilution method
[40] = system: Pseudomonas aeruginosa PAO1; assay: Inhibition of beta-lactamase activity in Pseudomonas aeruginosa PAO1 36/14-210 (ST-235) assessed as MIC for cefpodoxime antibacterial activity at 4 mg/L by broth microdilution method
[41] = system: Pseudomonas aeruginosa PAO1; assay: Inhibition of beta-lactamase activity in Pseudomonas aeruginosa PAO1 23/14-053 (ST-309) assessed as MIC for cefpodoxime antibacterial activity at 4 mg/L by broth microdilution method
[42] = system: Pseudomonas aeruginosa PAO1; assay: Inhibition of beta-lactamase activity in Pseudomonas aeruginosa PAO1 assessed as MIC for cefpodoxime antibacterial activity at 4 mg/L by broth microdilution method
[43] = system: Pseudomonas aeruginosa PAO1; assay: Inhibition beta lactamase PDC-1 in Pseudomonas aeruginosa PAO1 assessed as inactivation efficiency by measuring acylation rate (k2/K) using nitrocefin as substrate measured by 96 well microtitre plate
[44] = system: Pseudomonas aeruginosa PAO1; assay: Inhibition beta lactamase PDC-1 in Pseudomonas aeruginosa PAO1 assessed as deacylation off-rate using nitrocefin as substrate at 30 mins measured by 96 well microtitre plate

MIC [1]: 2 µg/mL (≈ 3.53 µM) | MIC [2]: 1 µg/mL (≈ 1.76 µM) | MIC [3]: 1 µg/mL (≈ 1.76 µM) | Ki [4]: 14 nM | inhibition [5]: inactive | Kinact [6]: 0.032 s⁻¹ | MIC [7]: 8 µg/mL (≈ 14.1 µM) | MIC [8]: 0.5 µg/mL (≈ 0.881 µM) | MIC [9]: 1 µg/mL (≈ 1.76 µM) | MIC [10]: 2 µg/mL (≈ 3.53 µM) | MIC [11]: 2 µg/mL (≈ 3.53 µM) | MIC [12]: 4 µg/mL (≈ 7.05 µM) | inhibition (Pseudomonas aeruginosa): inactive | MIC [13]: 8 µg/mL (≈ 14.1 µM) | MIC [14]: 1 µg/mL (≈ 1.76 µM) | MIC [15]: 4 µg/mL (≈ 7.05 µM) | MIC [16]: 1 µg/mL (≈ 1.76 µM) | IC50 [17]: 0.9 nM | MIC [18]: 8 µg/mL (≈ 14.1 µM) | MIC [19]: 1 µg/mL (≈ 1.76 µM) | MIC [20]: 1 µg/mL (≈ 1.76 µM) | MIC [21]: 1 µg/mL (≈ 1.76 µM) | MIC [22]: 1 µg/mL (≈ 1.76 µM) | MIC [23]: 4 µg/mL (≈ 7.05 µM) | T1/2 [24]: 1.75 h | MIC [25]: 4 µg/mL (≈ 7.05 µM) | MIC [26]: 1 µg/mL (≈ 1.76 µM) | MIC [27]: 1 µg/mL (≈ 1.76 µM) | MIC [28]: 1 µg/mL (≈ 1.76 µM) | MIC [29]: 1 µg/mL (≈ 1.76 µM) | MIC [30]: 1 µg/mL (≈ 1.76 µM) | MIC [31]: 1 µg/mL (≈ 1.76 µM) | MIC [32]: 0.5 µg/mL (≈ 0.881 µM) | MIC [33]: 8 µg/mL (≈ 14.1 µM) | MIC [34]: 1 µg/mL (≈ 1.76 µM) | K [35]: 20.9 10^5/M/s | MIC [36]: 2 µg/mL (≈ 3.53 µM) | MIC [37]: 0.5 µg/mL (≈ 0.881 µM) | MIC [38]: 2 µg/mL (≈ 3.53 µM) | MIC [39]: 2 µg/mL (≈ 3.53 µM) | MIC [40]: 16 µg/mL (≈ 28.2 µM) | MIC [41]: 2 µg/mL (≈ 3.53 µM) | MIC [42]: 1 µg/mL (≈ 1.76 µM) | k2/K inactivation efficiency [43]: 6.2 M⁻¹ s⁻¹ | K [44]: 7 10^-2/min
Structure (SMILES): C[C@]1(COC(=O)Cc2ccc(O)c(O)c2)[C@H](C(=O)O)N2C(=O)/C(=C/c3cc(Br)ccn3)[C@H]2S1(=O)=O

Structure (SMILES): CC1(C)[C@H](C(=O)O)N2C(=O)C[C@H]2S1(=O)=O [SULBACTAM]
IC50 [17]: 4370 nM
